This is an account of results in patent US12472269B2, “Liver-specific inducible promoters and methods of use thereof” (ASKBIO INC., priority 2019, dated 2025).

For one data set, the target named is T1, human CAR (Homo sapiens, UniProt Q14994).
T1 sequence (Q14994 1-352): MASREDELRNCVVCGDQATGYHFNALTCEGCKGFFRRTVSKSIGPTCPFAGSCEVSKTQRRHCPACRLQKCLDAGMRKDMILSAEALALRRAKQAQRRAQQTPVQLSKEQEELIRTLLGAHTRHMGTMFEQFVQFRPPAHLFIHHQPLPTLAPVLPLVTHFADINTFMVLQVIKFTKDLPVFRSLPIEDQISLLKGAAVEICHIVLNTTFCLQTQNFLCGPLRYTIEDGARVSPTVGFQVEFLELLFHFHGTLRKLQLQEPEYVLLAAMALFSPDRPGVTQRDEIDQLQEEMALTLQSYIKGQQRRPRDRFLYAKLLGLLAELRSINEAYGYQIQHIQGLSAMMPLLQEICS
To be noted: cited from earlier work.

The test system of data set [1] is Huh7 cell line stably expressing human CAR. In words: Induction of PBREM variants by CITCO and flavone in Huh7 cell line stably expressing human CAR. In kind it is cell-based. The source says: (§1) In the earlier examples, variants of the promoters used contained a mouse PBREM element. To confirm our expectation that the human PBREM element could also be used, we also assessed the inducibility of the human PBREM; this is potentially relevant because one aim of this project is to provide inducible promoters for use in human gene therapy, and the human sequence may have some advantages. In addition, we also assessed human and mouse hybrids of the PBREM element to determine if we could modulate or improve the inducibility and background level of the promoters. Such new combinations would not be found in nature in any context, and would likely to have novel traits, e.g. background and induction level. The constructs were tested in the PGL4.10 backbone as previously described, and are listed below in Table 2. These were: Human NR1×3-Min TK (3× human NR1 region with MinTK minimal promoter); Human PBREM-minTK (human PBREM with MinTK minimal promoter); hNR1-mNF1-hNR2-Min TK (Human Mouse Human hybrid with MinTK minimal promoter); hNR1-mNFI mNR2-Min TK (Human Mouse Mouse hybrid with MinTK minimal promoter); mNR1-hNF1-mNR2-Min TK (Mouse Human Mouse hybrid with MinTK minimal promoter); mNR1-hNF1-hNR2-Min TK (Mouse Human Human hybrid with MinTK minimal promoter); hPB-SV40 (human PBREM with SV40 minimal promoter); and MHM-SV40 (Mouse Human Mouse hybrid with SV40 minimal promoter)—SEQ ID NOs: 59 to 66, respectively.
(§2) These constructs were tested in the Huh7 stable cell line and primary hepatocytes as previously described. In addition, to testing the constructs with the traditional human CAR activator CITCO we also tested the natural compound flavone. […] CITCO has been predicted to be relatively unstable in vivo, and there is no data available for its safety of use in humans, and is therefore preferred for use only in tissue culture. Furthermore, the in vivo results presented above used phenobarbital as the inducer. In some contexts the use of phenobarbital may be undesirable, even if at 10× less than the recommended dose (which appears to be possible in view of the data above). Therefore, flavone may be a more desirable inducer that mitigates any safety or regulatory issues.
(§3) Expression and induction from these promoters was assessed using both CITCO and flavone in both the Huh7 CAR expressing stable cell line and primary hepatocytes as previously described.

The next data set has as its system primary hepatocytes. In words: Induction of PBREM variants by CITCO and flavone in primary hepatocytes. In kind it is cell-based, human.
Description: as §1, §2, §3

Where [2] appears, read: monomers compared with PB1 (FIG. 9), multimers with PB1-2 (FIG. 11).
Setting [3] is: monomers compared with PB1 (FIG. 10), multimers with PB1-2 (FIG. 12).

Consider `Clc1cnc(Oc2ccc(Oc3ncc(Cl)cc3Cl)cc2)c(Cl)c1` [TCPOBOP, 1,4-Bis[2-(3,5-dichloropyridyloxy)]benzene], for which the “activation of human CAR” value on human CAR was “does not activate human CAR”.
As to “hPB: human PBREM element (SEQ ID NO: 2), tested with Min-TK and SV40 minimal promoters (DNA ACTGTACTTTCCTGACCCTGAAGAGGTGGCAGCATGGACTTTCCTGAACCA; expressed or natural sequence; listed as Homo sapiens)”, the “performance (inducibility and background) compared with PB1” value is recorded as “almost identical manner to the mouse PBREM (PB1)” in data set [1] (CITCO and flavone, FIG. 9); “almost identical manner to the mouse PBREM (PB1)” in the data set with primary hepatocytes (CITCO and flavone, FIG. 10).
With “MHM hybrid: Mouse Human Mouse hybrid PBREM element (SEQ ID NO: 74), tested with Min-Tk and SV40 minimal promoters (DNA TCTGTACTTTCCTGACCTTGAAGAGGTGGCACCATCAACTTGCCTGACACC; expressed or natural sequence)”, the induction result in data set [1] (CITCO and flavone) was “good induction”; in the data set with primary hepatocytes (CITCO and flavone), “good induction”. For the same molecule, the background result (in data set [1] (setting [2]); in the data set on primary hepatocytes (setting [3])) was “lower background” throughout. Moreover, the “overall activity / expression level” value (in data set [1] (setting [2]); in the data set on primary hepatocytes (setting [3])) was “lower overall activity” throughout.
Turning to `O=c1cc(-c2ccccc2)oc2ccccc12` [flavone, reference compound], the “concentration demonstrated suitable to induce expression” value in data set [1] (administered to cells) turned out to be 30 µM. For the same molecule, the “activation of human CAR” value on human CAR is reported as “previously been reported to activate human CAR”.

B1: Human NR1x3-MinTK: 3× human NR1 region with MinTK minimal promoter, SEQ ID NO: 59 (nucleic acid)
DNA: ACTGTACTTTCCTGACCCTGAAGAGACTGTACTTTCCTGACCCTGAAGAGACTGTACTTTCCTGACCCTGAAGAGGATCCGGCCCCGCCCAGCGTCTTGTCATTGGCGAATTCGAACACGCAGATGCAGTCGGGGCGGCGCGGTCCGAGGTCCACTTCGCATATTAAGGTGACGCGTGTGGCCTCGAACACCGAGCGACCCTGCAGCGACCCGCTTAACAGCGTCAACAGCGTGCCGCAGATCTCGAGGAGCTTGGCGAGATTTTCAGGAGCT
modifications: Human NR1x3-Min TK
As to B1, the induction entry in data set [1] (CITCO and flavone) is reported as “only induced in the stable cell line”; in the data set on primary hepatocytes (CITCO and flavone) it was “less so in the primary cells”. In addition, the background result (in data set [1] (setting [2]); with primary hepatocytes (setting [3])) was “relatively high background” in each case.
